Assay [1] relates to dentate gyrus of wild-type mice. In words: Adult hippocampal neurogenesis (Ki67, DCX immunofluorescence). Type of assay: in vivo. The protocol: Animals. Two-month-old C57BC6 wild-type mice were treated and handled according to National Institutes of Health guidelines (NIH, […], Md.). The treatments were performed by intraperitoneal (ip) injection of 2.0 mg/kg ANDRO and wild-type control animals were injected only with saline solution as vehicle.
Mice were anesthetized (100 μg ketamine+10 μg xylazine in […] saline/g), and then transcardially perfused with saline, followed by 4% paraformaldehyde (PFA) in 0.1M PBS. The brains were removed and incubated in PBS-4% PFA for 24 h at room temperature, dehydrated in 30% sucrose and kept at 4° C. until analysis.
After dehydration, each mouse brain was sectioned on a cryostate in 12 sets of serial coronal sections of […] thickness (Leica Microsystems, Wetzlar, Germany) and collected in ice-cold-PBS in multiwell dishes.Each set contained 5-7 sections covering the entire length of the hippocampus.
Sections were washed with PBS 3 times for 5 min and then incubated in blocking solution (3% donkey serum, 3% BSA, 0.5% Triton X-100 in PBS) for 4 h. Then, tissues were incubated overnight with primary antibodies at 4° C. Primary antibodies used were: rabbit anti-Ki67 (Abcam), rabbit anti-DCX (Cell Signaling Technology Inc., Beverly, Mass., USA), monoclonal anti-NeuN (Millipore, Billerica, Mass., USA). After washing 3 times with 0.5% Triton X-100 PBS, sections were incubated with Dy Light (Abcam) conjugated secondary antibodies for 2 h at room temperature. […] For quantification, Ki67 positive cells were countedusing a fluorescence microscope (Olympus BX51, Tokyo, Japan). Cells were counted in all sections of one set (see tissue sectioning). Total cells counted in one set were multiplied by the total number of sets to obtain an estimation of the total number of Ki67+ cells in the complete hippocampus. For quantification of the % area covered by DCX, double labeling DCX/NeuN was carried. […] Images shown were analyzed by confocal laser microscopy (Olympus FV 1000) and z-projections were generated with ImageJ software.

Assay [2] deals with T1, Immunoprecipitated GSK-3β from hippocampus of wild-type mice (Mus musculus, UniProt Q9WV60).
T1 construct: the hippocampus of two month-old wild-type mice were lysed in immunoprecipitation buffer; from tissue; host or cells: hippocampus of two-month-old wild-type mice (immunoprecipitated with anti-GSK-3β antibody, Santa Cruz)
T1 sequence (Q9WV60 whole entry): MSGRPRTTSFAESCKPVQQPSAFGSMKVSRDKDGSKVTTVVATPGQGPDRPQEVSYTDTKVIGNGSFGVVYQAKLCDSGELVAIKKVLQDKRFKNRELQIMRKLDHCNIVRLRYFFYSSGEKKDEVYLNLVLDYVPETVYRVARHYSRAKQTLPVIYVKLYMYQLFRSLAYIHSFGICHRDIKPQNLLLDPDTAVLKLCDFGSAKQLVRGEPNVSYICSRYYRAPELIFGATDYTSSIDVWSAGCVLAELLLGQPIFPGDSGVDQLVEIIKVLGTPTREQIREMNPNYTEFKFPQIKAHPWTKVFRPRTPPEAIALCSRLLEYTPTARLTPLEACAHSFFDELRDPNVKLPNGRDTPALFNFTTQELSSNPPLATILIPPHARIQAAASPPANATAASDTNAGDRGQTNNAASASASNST
The assay can be described thus: Luminometric GSK-3β activity assay. Type of assay: biochemical. The protocol: The immunoprecipitation was performed as previously described (Garrido et al, 2002). Briefly, the hippocampus of two month-old wild-type mice were lysed in immunoprecipitation buffer (25 mM HEPES pH 7.4, 125 mMNaCl, 25 mMNaF, 1 mM EDTA, 1 mM EGTA, 1% NP-40) including phosphatase inhibitors (1 mM NaVO3 and 200 nM okadaic acid) and the protease inhibitor cocktail described above. 200 μg of total proteins from lysate were precleared by using protein G-Sepharose beads (Santa Cruz Biotechnology) for 1 h at 4° C. and then were incubated with anti-GSK-3β antibody (Santa Cruz Biotechnology) and new protein G beads for 4 h at 4° C. The immunocomplexes were finally pelleted and washed three times with cold immunoprecipitation buffer.
IC50 of ANDRO was determined by a luminometric GSK-3β activity assay. […] Briefly, ANDRO was tested at different concentrations and diluted in kinase buffer containing final concentrations of: 40 mM Tris pH 7.5; 20 mM MgCl2; 0.1 mg/ml BSA. […] The enzymatic reaction was stopped after 10 min of incubation to room temperature by adding 50 μl Kinase Glo (Promega, Madison, USA). The luminometric signal was allowed to stabilize for 10 min and the measured with a Luminometer TURNER DESIGNS model TD-2020.

The mark [3] stands for this setting: 2-month-old mice, 2 mg/kg i.p. 3 times per week for 4 weeks.

SMILES strings stand for the structures. pIC50: −log10 of the molar value. Where two headings read alike, the source gives them in different places.

In the case of `C=C1CC[C@@H]2C(C)(CO)C(O)CC[C@@]2(C)C1C/C=C1/C(=O)OCC1O` (stereo in doubt) [ANDRO, 3-(2-(Decahydro-6-hydroxy-5-(hydroxymethyl)-5,8a-dimethyl-2-methylenenaphthyl)ethylidene)dihydro-4-hydroxyfuran-2(3H)-one], in assay [1] (setting [3]), the “percentage of the granular cell layer covered by DCX staining” value is reported as “significantly increased” and the “total number of Ki67+ cells in the SGZ” value is recorded as “significantly increased the total number of Ki67^+ cells”. Also, the “morphology of DCX+ cells” value in assay [1] (compared to control mice) is recorded as “more complex morphology”. Also, in assay [2] (25 μM pGS-2 peptide substrate, 10 μM ATP, preincubation 10 min, read-out: inhibition constant (IC50) of GSK-3β activity), the pIC50 is 5.25. The “GSK-3β inhibition in the presence of DTT” value in assay [2] (0.5 mM DTT) is “neither prevents the inhibition generated by ANDRO”. In assay [2] (different concentrations of ATP, read-out: IC50 using different concentrations of ATP), the pIC50 was approximately 5.25. In addition, the “IC50 at increased substrate concentration” value in assay [2] (different concentrations of the substrate) is on record as “increase in the IC50 of ANDRO”.
